How the values were obtained:
Format in all cases: biochemical
[1] = target: T1, AKT1 (Homo sapiens, UniProt P31749); test: AKT Kinase Assay (IMAP fluorescent polarisation) vs AKT1
T1 construct: purchased SignalChem
How it was run: (§1)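 Phosphorylation of FAM-Crosstide detected by IMAP binding and fluorescence polarisation (485/528 nm), with IC50 fitted from % inhibition versus vehicle. Compound was incubated 45 min with enzyme, then reacted 1 h at room temperature with ATP and peptide in Tris/MgCl2/DTT buffer. Dose response had fourteen half-log points.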

[2] = target: T2, AKT2 (Homo sapiens, UniProt P31751); test: AKT Kinase Assay (IMAP fluorescent polarisation) vs AKT2
T2 construct: purchased SignalChem
How it was run: as §1

[3] = target: T3, AKT3 (Homo sapiens, UniProt Q9Y243); test: AKT Kinase Assay (IMAP fluorescent polarisation) vs AKT3
T3 construct: purchased SignalChem
How it was run: as §1

T2 sequence (P31751 whole entry): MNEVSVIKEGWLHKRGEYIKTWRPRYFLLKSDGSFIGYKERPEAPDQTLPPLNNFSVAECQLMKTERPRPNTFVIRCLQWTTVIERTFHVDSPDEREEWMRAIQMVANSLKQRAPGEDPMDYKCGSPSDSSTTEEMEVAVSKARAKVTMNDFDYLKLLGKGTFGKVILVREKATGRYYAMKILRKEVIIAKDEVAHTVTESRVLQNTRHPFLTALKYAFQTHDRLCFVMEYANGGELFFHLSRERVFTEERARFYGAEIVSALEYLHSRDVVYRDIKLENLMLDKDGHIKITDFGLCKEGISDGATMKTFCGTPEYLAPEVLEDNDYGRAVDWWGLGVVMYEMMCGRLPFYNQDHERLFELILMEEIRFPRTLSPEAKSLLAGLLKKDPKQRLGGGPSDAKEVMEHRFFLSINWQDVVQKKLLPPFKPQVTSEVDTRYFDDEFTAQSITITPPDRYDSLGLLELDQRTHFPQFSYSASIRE
T3 sequence (Q9Y243 whole entry): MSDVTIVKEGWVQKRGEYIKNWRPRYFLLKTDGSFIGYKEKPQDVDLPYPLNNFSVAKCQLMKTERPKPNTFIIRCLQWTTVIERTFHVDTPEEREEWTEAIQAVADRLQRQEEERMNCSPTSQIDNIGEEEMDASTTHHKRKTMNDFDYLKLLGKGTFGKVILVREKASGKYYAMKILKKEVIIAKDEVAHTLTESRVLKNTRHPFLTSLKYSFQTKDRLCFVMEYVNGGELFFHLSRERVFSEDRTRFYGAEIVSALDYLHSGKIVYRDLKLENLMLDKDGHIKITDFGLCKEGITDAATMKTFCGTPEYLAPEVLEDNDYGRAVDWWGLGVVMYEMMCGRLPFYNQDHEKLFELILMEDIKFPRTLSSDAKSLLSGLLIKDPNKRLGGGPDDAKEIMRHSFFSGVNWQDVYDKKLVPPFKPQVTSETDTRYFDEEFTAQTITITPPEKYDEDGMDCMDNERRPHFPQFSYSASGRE
T1 sequence (P31749 whole entry): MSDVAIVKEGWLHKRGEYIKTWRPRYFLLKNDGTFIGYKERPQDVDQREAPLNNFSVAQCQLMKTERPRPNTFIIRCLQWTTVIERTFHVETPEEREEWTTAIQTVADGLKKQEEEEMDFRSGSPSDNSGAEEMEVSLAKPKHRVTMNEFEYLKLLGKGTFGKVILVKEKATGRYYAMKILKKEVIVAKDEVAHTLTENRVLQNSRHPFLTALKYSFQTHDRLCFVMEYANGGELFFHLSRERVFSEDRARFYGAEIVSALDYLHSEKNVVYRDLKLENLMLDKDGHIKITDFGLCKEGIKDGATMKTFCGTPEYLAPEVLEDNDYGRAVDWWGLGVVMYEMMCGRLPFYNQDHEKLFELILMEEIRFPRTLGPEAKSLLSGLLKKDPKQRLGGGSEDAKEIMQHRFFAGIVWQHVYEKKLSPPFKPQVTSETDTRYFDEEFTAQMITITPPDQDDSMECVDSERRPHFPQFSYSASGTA

Row | IC50 [1] [nM] | IC50 [2] [nM] | IC50 [3] [nM] | Structure (SMILES)
1 | ≤ 100 | 100 to 1000 | > 10000 | Cn1cnc(-c2nnc3n2CCc2nc(-c4ccc(C5(N)CCC5)cc4)c(-c4ccccc4)cc2-3)c1 [Example 29, 1-(4-(3-(1-methyl-1H-imidazol-4-yl)-9-phenyl-5,6-dihydro-[1,2,4]triazolo[3,4-f][1,6]naphthyridin-8-yl)phenyl)cyclobutanamine]
2 | 1000 to 10000 | > 10000 | > 10000 | CO/N=C1\CCCc2nc(-c3ccc(C4(N)CCC4)cc3)c(-c3ccccc3)cc21 [Example 3, 2-(4-(1-aminocyclobutyl)phenyl)-3-phenyl-7,8-dihydroquinolin-5(6H)-one O-methyl oxime]
3 | 100 to 1000 | 100 to 1000 | 1000 to 10000 | COCCN1C(=O)COc2nc(-c3ccc(C4(N)CCC4)cc3)c(-c3ccccc3)cc21 [Example 51, 6-(4-(1-aminocyclobutyl)phenyl)-1-(2-methoxyethyl)-7-phenyl-1H-pyrido[2,3-b][1,4]oxazin-2(3H)-one]
4 | 100 to 1000 | 1000 to 10000 | 1000 to 10000 | NC1(c2ccc(-c3nc4c(cc3-c3ccccc3)-n3c(Br)nnc3CO4)cc2)CCC1 [Example 92, 1-(4-(1-bromo-8-phenyl-4H-pyrido[2,3-b][1,2,4]triazolo[4,3-d][1,4]oxazin-7-yl)phenyl)cyclobutanamine]
5 | 100 to 1000 | 1000 to 10000 | > 10000 | NC1(c2ccc(-c3nc4c(cc3-c3ccccc3)-n3cnnc3CO4)cc2)CCC1 [Example 39, 1-(4-(8-phenyl-4H-pyrido[2,3-b][1,2,4]triazolo[4,3-d][1,4]oxazin-7-yl)phenyl)cyclobutanamine]
6 | 100 to 1000 | 1000 to 10000 | > 10000 | CSc1[nH]nc2c1CCc1nc(-c3ccc(C4(N)CCC4)cc3)c(-c3ccccc3)cc1-2 [Example 9, 1-(4-(3-(methylthio)-8-phenyl-4,5-dihydro-2H-pyrazolo[3,4-f]quinolin-7-yl)phenyl)cyclobutanamine]
7 | 1000 to 10000 | 100 to 1000 | > 10000 | NCc1ccc(-c2nc3c(cc2-c2ccccc2)N(CC(F)(F)F)C(=O)CO3)cc1 [Example 146, 6-(4-(Aminomethyl)phenyl)-7-phenyl-1-(2,2,2-trifluoroethyl)-1H-pyrido[2,3-b][1,4]oxazin-2(3H)-one]
8 | ≤ 100 | 1000 to 10000 | > 10000 | NC1(c2ccc(-c3nc4c(cc3-c3ccccc3)-c3n[nH]c(NCCO)c3CC4)cc2)CCC1 [Example 12, 2-((7-(4-(1-aminocyclobutyl)phenyl)-8-phenyl-4,5-dihydro-2H-pyrazolo[3,4-f]quinolin-3-yl)amino)ethanol]
9 | ≤ 100 | 1000 to 10000 | 1000 to 10000 | NC1(c2ccc(-c3nc4c(cc3-c3ccccc3)-n3c(CO)nnc3CO4)cc2)CCC1 [Example 107]
10 | 100 to 1000 | 100 to 1000 | 100 to 1000 | NC1(c2ccc(-c3nc4c(cc3-c3ccccc3)N(Cc3ccccn3)C(=O)CO4)cc2)CCC1 [Example 56, 6-(4-(1-aminocyclobutyl)phenyl)-7-phenyl-1-(pyridin-2-ylmethyl)-1H-pyrido[2,3-b][1,4]oxazin-2(3H)-one]
11 | 100 to 1000 | 1000 to 10000 | > 10000 | NC1(c2ccc(-c3nc4c(cc3-c3ccccc3)NC(=O)NC4)cc2)CCC1 [Example 87, 6-(4-(1-aminocyclobutyl)phenyl)-7-phenyl-3,4-dihydropyrido[3,2-d]pyrimidin-2(1H)-one]
12 | 100 to 1000 | 1000 to 10000 | > 10000 | NC1(c2ccc(-c3nc4c(cc3-c3ccccc3)NCCO4)cc2)CCC1 [Example 37, 1-(4-(7-phenyl-2,3-dihydro-1H-pyrido[2,3-b][1,4]oxazin-6-yl)phenyl)cyclobutanamine]
13 | 100 to 1000 | 100 to 1000 | 1000 to 10000 | CN1Cc2nc(-c3ccc(C4(N)CCC4)cc3)c(-c3ccccc3)cc2N(C)C1=O [Example 89, 6-(4-(1-aminocyclobutyl)phenyl)-1,3-dimethyl-7-phenyl-3,4-dihydropyrido[3,2-d]pyrimidin-2(1H)-one]
14 | ≤ 100 | 100 to 1000 | 1000 to 10000 | CC1Oc2nc(-c3ccc(C4(N)CCC4)cc3)c(-c3ccccc3)cc2N(CC#N)C1=O (stereo not drawn) [Example 81, 2-(6-(4-(1-aminocyclobutyl)phenyl)-3-methyl-2-oxo-7-phenyl-2,3-dihydro-1H-pyrido[2,3-b][1,4]oxazin-1-yl)acetonitrile]
15 | 100 to 1000 | 100 to 1000 | > 10000 | N#CCN1C(=O)C(CCO)Oc2nc(-c3ccc(C4(N)CCC4)cc3)c(-c3ccccc3)cc21 (stereo not drawn) [Example 78]
16 | 1000 to 10000 | 1000 to 10000 | 1000 to 10000 | CN1C(=O)COc2nc(-c3ccc(C4(N)CCC4)cc3)c(-c3cccnc3)cc21 [Example 124, 6-(4-(1-aminocyclobutyl)phenyl)-1-methyl-7-(pyridin-3-0)-1H-pyrido[2,3-b][1,4]oxazin-2(3H)-one]
17 | ≤ 100 | 100 to 1000 | 1000 to 10000 | CCc1nnc2n1-c1cc(-c3ccccc3)c(-c3ccc([C@]4(N)C[C@](C)(O)C4)cc3)nc1OC2 [Example 138, (1r,3r)-3-amino-3-(4-(1-ethyl-8-phenyl-4H-pyrido[2,3-b][1,2,4]triazolo[4,3-d][1,4]oxazin-7-yl)phenyl)-1-methylcyclobutanol]
18 | 100 to 1000 | 100 to 1000 | > 10000 | COCC1Oc2nc(-c3ccc(C4(N)CCC4)cc3)c(-c3ccccc3)cc2N(CC#N)C1=O (stereo not drawn) [Example 95, 2-(6-(4-(1-aminocyclobutyl)phenyl)-3-(methoxymethyl)-2-oxo-7-phenyl-2,3-dihydro-1H-pyrido[2,3-b][1,4]oxazin-1-yl)acetonitrile]
19 | 100 to 1000 | 100 to 1000 | > 10000 | C#CCN1C(=O)COc2nc(-c3ccc(C4(N)CCC4)cc3)c(-c3ccccc3)cc21 [Example 32, 6-(4-(1-aminocyclobutyl)phenyl)-7-phenyl-1-(prop-2-yn-1-yl)-1H-pyrido[2,3-b][1,4]oxazin-2(3H)-one]
20 | 100 to 1000 | 100 to 1000 | 100 to 1000 | NC1(c2ccc(-c3nc4c(cc3-c3ccccc3)-n3c(nnc3C3CC3)CO4)cc2)CCC1 [Example 110, 1-(4-(1-cyclopropyl-8-phenyl-4H-pyrido[2,3-b][1,2,4]triazolo[4,3-d][1,4]oxazin-7-yl)phenyl)cyclobutanamine]
21 | 1000 to 10000 | 100 to 1000 | > 10000 | NC(=O)CN1C(=O)COc2nc(-c3ccc(C4(N)CCC4)cc3)c(-c3ccccc3)cc21 [Example 35, 2-(6-(4-(1-aminocyclobutyl)phenyl)-2-oxo-7-phenyl-2,3-dihydro-1H-pyrido[2,3-b][1,4]oxazin-1-yl)acetamide]
22 | 1000 to 10000 | 100 to 1000 | 1000 to 10000 | N#CCCN1C(=O)COc2nc(-c3ccc(C4(N)CCC4)cc3)c(-c3ccccc3)cc21 [Example 62, 3-(6-(4-(1-aminocyclobutyl)phenyl)-2-oxo-7-phenyl-2,3-dihydro-1H-Pyrido[2,3-b][1,4]oxazin-1-yl)propanenitrile]
23 | 100 to 1000 | 1000 to 10000 | > 10000 | CN1C(=O)COc2nc(-c3ccc(C4(N)CCC4)cc3)c(-c3ccc(F)cc3)cc21 [Example 132, 6-(4-(1-aminocyclobutyl)phenyl)-7-(4-fluorophenyl)-1-methyl-1H-pyrido[2,3-b][1,4]oxazin-2(3H)-one]
24 | 100 to 1000 | 100 to 1000 | > 10000 | NC1(c2ccc(-c3nc4c(cc3-c3ccccc3)N(CCO)C(=O)CO4)cc2)CCC1 [Example 68, 6-(4-(1-aminocyclobutyl)phenyl)-1-(2-hydroxyethyl)-7-phenyl-1H-pyrido[2,3-b][1,4]oxazin-2(3H)-one]
25 | 100 to 1000 | 100 to 1000 | 1000 to 10000 | CC(C)Cc1nnc2n1-c1cc(-c3ccccc3)c(-c3ccc(C4(N)CCC4)cc3)nc1OC2 [Example 115, 1-(4-(1-isobutyl-8-phenyl-4H-pyrido[2,3-b][1,2,4]triazolo[4,3-d][1,4]oxazin-7-yl)phenyl)cyclobutanamine]
26 | 1000 to 10000 | 100 to 1000 | > 10000 | CC(=O)N1CCOc2nc(-c3ccc(C4(N)CCC4)cc3)c(-c3ccccc3)cc21 [Example 41, 1-(6-(4-(1-aminocyclobutyl)phenyl)-7-phenyl-2,3-dihydro-1H-pyrido[2,3-b][1,4]oxazin-1-yl)ethanone]
27 | 100 to 1000 | 1000 to 10000 | > 10000 | NC1(c2ccc(-c3nc4c(cc3-c3ccccc3)-c3n[nH]cc3CCC4)cc2)CCC1 [Example 21, 1-(4-(9-phenyl-2,4,5,6-tetrahydropyrazolo[3′,4′:3,4]cyclohepta[1,2-b]pyridin-8-yl)phenyl)cyclobutanamine]
28 | 100 to 1000 | 1000 to 10000 | 1000 to 10000 | CCc1nnc2n1-c1cc(-c3ccccc3)c(-c3ccc([C@]4(N)C[C@@H](O)C4)cc3)nc1OC2 [Example 136, (1s,3s)-3-Amino-3-(4-(1-ethyl-8-phenyl-4H-pyrido[2,3-b][1,2,4]triazolo[4,3-d][1,4]oxazin-7-yl)phenyl)cyclobutanol]
29 | 100 to 1000 | 100 to 1000 | > 10000 | CNc1[nH]nc2c1CCc1nc(-c3ccc(C4(N)CCC4)cc3)c(-c3ccccc3)cc1-2 [Example 11, 7-(4-(1-aminocyclobutyl)phenyl)-N-methyl-8-phenyl-4,5-dihydro-2H-pyrazolo[3,4-f]quinolin-3-amine]
30 | 100 to 1000 | 100 to 1000 | 1000 to 10000 | CN1C(=O)NCc2nc(-c3ccc(C4(N)CCC4)cc3)c(-c3ccccc3)cc21 [Example 108, 6-(4-(1-aminocyclobutyl)phenyl)-1-methyl-7-phenyl-3,4-dihydropyrido[3,2-d]pyrimidin-2(1H)-one]
